Values of other authors, collected in PMC9076486 (RSC Advances, 2019).

Test system: superoxide anions
Settings: pH 7.4; for IC50: read-out: IC50 (SOD activity)

Molecule | k cat (SOD activity) | IC50
[Cu+2].[O-][Cl+3]([O-])([O-])[O-].[O-][Cl+3]([O-])([O-])[O-] [Cu(ClO4)2, copper(II) perchlorate] | 2.7 10^6 M^−1 s^−1 | 1100 nM
CuZn–SOD: native copper–zinc superoxide dismutase enzyme, value from ref. 42 | 430 10^6 M^−1 s^−1 | 10 nM
